Data from patent publication US7235649B2, “Isolated GRP94 ligand binding domain polypeptide and nucleic acid encoding same, and screening methods employing same” (Duke University, priority 2000, dated 2007).

Tests used:
GRP94 [1] = biological target: T1, GRP94 (Sus scrofa, UniProt Q29092); test: Fluorophore binding reactions with native or heat shocked GRP94 (fluorescence emission); details: for fluorophore binding to native GRP94: 0.5 μM native GRP94, 5 μM probe, 30 min at 37° C.; for fluorophore binding to heat shocked GRP94: 0.5 μM GRP94 heat shocked 15 minutes at 50° C., 5 μM probe
T1 sequence (Q29092 22-804): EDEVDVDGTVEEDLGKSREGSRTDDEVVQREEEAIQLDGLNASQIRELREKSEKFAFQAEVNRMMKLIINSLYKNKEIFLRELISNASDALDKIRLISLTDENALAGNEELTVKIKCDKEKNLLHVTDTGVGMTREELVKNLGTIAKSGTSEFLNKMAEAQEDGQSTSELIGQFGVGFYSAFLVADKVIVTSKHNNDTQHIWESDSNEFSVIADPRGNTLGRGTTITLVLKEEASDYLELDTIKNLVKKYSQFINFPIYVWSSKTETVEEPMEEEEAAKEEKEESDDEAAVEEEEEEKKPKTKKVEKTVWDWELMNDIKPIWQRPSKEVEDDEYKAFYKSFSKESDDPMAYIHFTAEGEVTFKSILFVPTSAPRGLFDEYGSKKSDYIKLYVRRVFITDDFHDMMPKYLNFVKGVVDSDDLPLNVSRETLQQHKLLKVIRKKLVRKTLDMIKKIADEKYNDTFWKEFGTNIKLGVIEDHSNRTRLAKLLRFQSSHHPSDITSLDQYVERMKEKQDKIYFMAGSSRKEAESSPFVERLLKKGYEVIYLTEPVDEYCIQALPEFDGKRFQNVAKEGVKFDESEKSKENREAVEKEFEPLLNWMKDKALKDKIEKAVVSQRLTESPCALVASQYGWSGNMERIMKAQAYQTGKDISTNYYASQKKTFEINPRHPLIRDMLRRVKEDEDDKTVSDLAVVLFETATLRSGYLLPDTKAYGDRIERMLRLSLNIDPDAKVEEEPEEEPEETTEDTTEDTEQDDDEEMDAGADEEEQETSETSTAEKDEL

GRP94 [2] = biological target: T1, GRP94; test: Blue native polyacrylamide gel electrophoresis (oligomeric state); assay type: biochemical, porcine; set-up: GRP94 was purified from porcine pancreas rough microsomes; from tissue; host or cells: porcine pancreas rough microsomes; details: ten-fold molar excess of bis-ANS
Description: Native Blue Electrophoresis. The oligomeric state of GRP94 was assayed by blue native polyacrylamide gel electrophoresis (BN-PAGE) as described by Schagger et al. (1994) Anal Biochem 217:220–230. GRP94 was either heat shocked or exposed to a 10-fold molar excess of bis-ANS for the indicated times. Samples were then dissolved in 15% glycerol and loaded onto 5–18% gradient gels with 0.02% Coomassie Brilliant Blue in the cathode buffer. Gels were run at 4° C., stained with Coomassie Blue, de-stained and dried.
When purified from tissue, GRP94 exists as a homodimer, as described by Wearsch & Nicchitta (1996a) Prot Express Purif 7(1):114–21; Nemoto et al. (1996) J Biochem 120:249–256. Following heat shock however, GRP94 forms higher molecular weight complexes, as described by Wearsch et al. (1998) Biochemistry 37:5709–5719. To further characterize the effects of bis-ANS on GRP94 structure, the oligomerization states of native, heat shocked and bis-ANS treated GRP94 were assayed by the blue native polyacrylamide gel electrophoresis (BN-PAGE) technique described by Schagger et al. (1994). In these experiments, GRP94 was incubated with bis-ANS or briefly heat shocked and subsequently incubated at 37° C. The samples were then analyzed by BN-PAGE. […] However, exposure to heat shock causes a relatively rapid formation of tetramers, hexamers, and octamers (FIG. 4, lanes 2–4).

GRP94 [3] = biological target: T1, GRP94; test: Conformational analysis by tryptic proteolysis and SDS-PAGE; assay type: biochemical, porcine; set-up: GRP94 was purified from porcine pancreas rough microsomes; from tissue; host or cells: porcine pancreas rough microsomes; details: 5 μM GRP94, 50 μM bis-ANS one hour at 37° C., 0.1% trypsin
GRP94 [4] = biological target: T1, GRP94; test: Citrate synthase thermal aggregation assay (GRP94 chaperone activity); assay type: biochemical, porcine; set-up: GRP94 was purified from porcine pancreas rough microsomes; from tissue; host or cells: porcine pancreas rough microsomes; details: 1 μM GRP94 preincubated two hours with 10 μM bis-ANS, 0.15 μM citrate synthase, 43° C.
Description: Citrate Synthase Aggregation Assays. The effects of GRP94 on the thermal aggregation of citrate synthase were assayed by the methods described by Buchner et al. (1998) Methods Enzymol 290:323–338. Samples containing no protein, or GRP94 (1 μM), were incubated in 40 mM HEPES pH 7.5 for two hours at 37° C. with either 0.2% DMF or 10 μM bis-ANS. The samples were then warmed to 43° C. for five minutes and placed in a spectrofluorometer thermostatted at 43° C. Citrate synthase was then added to 0.15 μM final concentration and the thermal aggregation of the enzyme followed by light scattering. Excitation and emission wavelengths were both 500 nm with 2 nm slit width. The time course of citrate synthase aggregation was followed for 1000 seconds.
To determine if the bis-ANS-dependent conformational changes in GRP94 were of functional significance, the molecular chaperone activities of native, heat shocked and bis-ANS treated GRP94 were evaluated in a thermal aggregation assay, as described by Jakob et al. (1995) J Biol Chem 270:7288–7294 and Buchner et al. (1998) Methods Enzymol 290:323–338. […] Following experimental treatment of the GRP94, reactions were equilibrated at 43° C., citrate synthase then added and aggregation, as represented by light scattering, was measured.

GRP94 [5] = biological target: T1, GRP94; test: Identification of the bis-ANS binding site by photo-crosslinking, trypsin digestion and Edman sequencing; set-up: GRP94 was purified from porcine pancreas rough microsomes; from tissue; host or cells: porcine pancreas rough microsomes; species or system porcine; details: 50 μM bis-ANS photo-crosslinked 15 minutes on ice
GRP94 [6] = biological target: T1, GRP94; test: Far-UV circular dichroism; assay type: biochemical, porcine; set-up: GRP94 was purified from porcine pancreas rough microsomes; from tissue; host or cells: porcine pancreas rough microsomes; details: 1 μM GRP94, 10 μM bis-ANS 2 hours
Description: Circular Dichroism Measurements. Far-UV CD spectrometry was performed on an AVIV Associates 62DS™ circular dichroism spectrometer (AVIV Associates of Lakewood, N.J.). Samples were analyzed in a 1 mm path length quartz cuvette at 37° C. GRP94 samples (1 μM) were prepared in standard phosphate buffered saline solution as buffer A produced unacceptable dynode voltages in the relevant region of the spectrum. GRP94 was incubated with 10 μM bis-ANS for 2 hours at 37° C. prior to obtaining spectra. Spectra were recorded from 300 to 195 nm. The α-helical content of GRP94 was calculated from the molar ellipticity at 222 nm. See Myers & Jakoby (1975) J Biol Chem 250:3785–3789.
To gain further insight into the nature of the bis-ANS dependent conformational change, GRP94 was subjected to heat shocked or treated with bis-ANS and far-UV CD spectra obtained (FIG. 5).

HSP90 = test: Conformational analysis by tryptic proteolysis and SDS-PAGE; assay type: biochemical; details: bis-ANS treatment
Description: Conformational Analysis by Proteolysis. […] Samples were then combined with 0.1% trypsin and digested for 30 minutes at 37° C. An equal volume of SDS-PAGE sample buffer was added and the samples were snap frozen in liquid nitrogen. Immediately prior to gel analysis, samples were thawed and boiled for 5 minutes. […] Gels were fixed and stained with Coomassie Blue.

GRP94 [7] = biological target: T1, GRP94; assay type: biochemical, porcine; set-up: GRP94 was purified from porcine pancreas rough microsomes; from tissue; host or cells: porcine pancreas rough microsomes; details: bis-ANS treated GRP94, ten-fold molar excess [125I]-VSV8, 30 min at 37° C.
GRP94 [8] = biological target: T1, GRP94; test: Tryptophan fluorescence (ligand-induced conformational change); details: 50 μM NECA, 50 μM geldanamycin, 2.5 mM ATP or 2.5 mM ADP, 1 hour at 37° C.
Description: Tryptophan Fluorescence. Tryptophan fluorescence measurements were conducted in a FLUOROMAX™ spectrofluorometer (Spex Industries, Inc. of Edison, N.J.) with the slit widths set to 1 nm for both excitation and emission. […] All spectra were corrected by subtraction of buffer or buffer plus ligand samples. […] Samples were then cooled to room temperature, transferred to a quartz cuvette, and the spectra collected.

GRP94 [9] = biological target: T1, GRP94; test: [3H]-NECA competitive displacement assay; assay type: binding, porcine; set-up: GRP94 was purified from porcine pancreas rough microsomes; from tissue; host or cells: porcine pancreas rough microsomes; details: for competition with [3H]-NECA for binding to GRP94 (adenosine ligands) / nucleoside base specificity: binding by [3H]-NECA competitive displacement: 20 nM [3H]-NECA; for competition with [3H]-NECA for binding to GRP94 (adenosine ligands): nominal (80 μM) Mg2+; for effect of excess Mg2+ on binding to GRP94: 10 mM Mg(OAc)2 vs nominal endogenous magnesium; for nucleoside base specificity: binding by [3H]-NECA competitive displacement: competitors all at 50 μM
[10] = biological target: N-terminal nucleotide binding pocket of Hsp90 (Saccharomyces cerevisiae, UniProt P02829); details: cited from earlier work
Chain of N-terminal nucleotide binding pocket of Hsp90 (P02829 whole entry): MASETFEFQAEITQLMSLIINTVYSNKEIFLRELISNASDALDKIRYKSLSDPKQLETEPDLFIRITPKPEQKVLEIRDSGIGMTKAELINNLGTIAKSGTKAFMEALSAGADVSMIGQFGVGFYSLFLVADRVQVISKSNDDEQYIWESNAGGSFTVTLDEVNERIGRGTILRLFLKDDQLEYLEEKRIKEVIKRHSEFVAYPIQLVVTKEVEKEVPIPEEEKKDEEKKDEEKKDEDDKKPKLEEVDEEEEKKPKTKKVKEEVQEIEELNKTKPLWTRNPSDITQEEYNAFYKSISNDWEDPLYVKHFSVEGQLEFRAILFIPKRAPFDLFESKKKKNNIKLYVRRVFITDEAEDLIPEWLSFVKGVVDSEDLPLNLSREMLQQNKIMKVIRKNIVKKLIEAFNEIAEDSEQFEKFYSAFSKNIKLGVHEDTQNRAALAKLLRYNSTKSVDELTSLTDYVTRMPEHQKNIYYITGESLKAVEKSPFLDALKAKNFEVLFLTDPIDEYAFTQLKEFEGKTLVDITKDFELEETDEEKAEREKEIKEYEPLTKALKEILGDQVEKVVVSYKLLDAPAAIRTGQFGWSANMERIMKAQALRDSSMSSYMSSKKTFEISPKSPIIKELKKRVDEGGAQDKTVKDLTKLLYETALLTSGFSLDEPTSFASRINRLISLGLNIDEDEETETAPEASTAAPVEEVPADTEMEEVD

GRP94 [11] = biological target: T1, GRP94; test: GRP94 autophosphorylation assay; assay type: biochemical, porcine; set-up: GRP94 was purified from porcine pancreas rough microsomes; from tissue; host or cells: porcine pancreas rough microsomes; details: 180 μM NECA or 180 μM radicicol in 3.6% DMSO, 5 μg/ml heparin, 5 mM GTP; 1 hour 37° C.
Description: (§1) Phosphorylation Assays. […] For the casein kinase assay, 1 unit of casein kinase 11 was incubated as described above, with the addition of 4 μM casein. […] The 25 μl reaction mixtures were incubated at 37° C. for 1 hour and quenched by addition of 10% trichloroacetic acid. Samples were analyzed by 10% SDS-PAGE gels and the phosphorylated species were quantitated using a Fuji MACBAS1000™ phosphorimaging system (Fuji Medical Systems of Stamford, Conn.).

casein kinase II = casein kinase II (Homo sapiens, UniProt P68400); test: Casein kinase II assay with casein; assay type: biochemical; details: 180 μM NECA or 180 μM radicicol in 3.6% DMSO, 5 μg/ml heparin, 5 mM GTP; 4 μM casein
Chain of casein kinase II (P68400 whole entry): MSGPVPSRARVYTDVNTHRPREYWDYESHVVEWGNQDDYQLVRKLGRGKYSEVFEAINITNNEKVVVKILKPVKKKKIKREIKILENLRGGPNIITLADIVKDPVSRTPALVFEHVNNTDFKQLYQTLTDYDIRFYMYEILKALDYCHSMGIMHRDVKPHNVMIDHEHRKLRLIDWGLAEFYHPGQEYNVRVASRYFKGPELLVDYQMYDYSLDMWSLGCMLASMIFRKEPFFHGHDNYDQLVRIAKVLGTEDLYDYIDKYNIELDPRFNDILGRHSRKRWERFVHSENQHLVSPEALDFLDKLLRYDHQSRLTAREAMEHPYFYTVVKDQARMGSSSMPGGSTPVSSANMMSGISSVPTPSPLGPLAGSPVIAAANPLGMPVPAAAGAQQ
Chain of casein kinase II (P67870 whole entry partner): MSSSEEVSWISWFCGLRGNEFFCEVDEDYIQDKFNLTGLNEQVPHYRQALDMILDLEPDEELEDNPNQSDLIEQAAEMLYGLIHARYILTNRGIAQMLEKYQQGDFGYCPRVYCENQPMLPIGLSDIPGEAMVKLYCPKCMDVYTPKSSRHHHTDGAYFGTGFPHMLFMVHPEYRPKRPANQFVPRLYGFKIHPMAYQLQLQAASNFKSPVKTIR
Description: as §1

## 4,4′-dianilino-1,1-binaphthyl-5,5-disulfonic acid [bis-ANS]
GRP94 [1]
  fluorophore binding to native GRP94: bi-phasic
GRP94 [1]; heat shocked GRP94
  saturability of bis-ANS binding: binds in a saturable manner to heat shocked GRP94
GRP94 [1]; heat shocked GRP94, fixed bis-ANS 50 nM
  near maximal bis-ANS binding, molar excess of GRP94 monomer over bis-ANS: 20 -fold molar excess
GRP94 [1]; native GRP94, extended incubation (20 hours)
  bis-ANS binding to native GRP94 following extended incubations: a level of fluorophore binding similar to that seen with heat shocked GRP94 was observed
GRP94 [1]; read-out: half maximal binding of bis-ANS to heat shocked GRP94, fixed bis-ANS 50 nM, increasing heat shocked GRP94, emission 475 nm
  Kd: 110 nM
GRP94 [2]
  GRP94 quaternary structure (oligomerization): induces changes in the quaternary structure of GRP94 that mimic those seen upon heat shock
GRP94 [3]
  trypsin proteolysis pattern of GRP94 (conformation): substantially reduced recovery of the prominent proteolysis products
GRP94 [4]
  citrate synthase thermal aggregation in presence of compound-treated GRP94: no thermal aggregation of citrate synthase was detectable
GRP94 [5]
  site of bis-ANS binding to GRP94: residues 271–281 of the N-terminal domain of GRP94
GRP94 [6]
  GRP94 secondary structure (CD spectra): does not alter GRP94 secondary structure
HSP90
  trypsin proteolysis pattern of HSP90 (conformation): Essentially identical proteolysis patterns were observed following either heat shock or bis-ANS treatment of HSP90
GRP94 [7]
  stimulation of GRP94 peptide binding activity over native protein: four to five-fold

## O=S(=O)(O)c1cccc2cccc(Nc3ccccc3)c12 [8-ANS, 1,8-anilinonaphthalenesulfonate]
GRP94 [1]
  fluorophore binding to heat shocked GRP94: binds avidly following heat shock
  fluorophore binding to native GRP94: weak interactions with native GRP94

## Nc1ncnc2c1ncn2[C@@H]1O[C@H](COP(=O)(O)OP(=O)(O)O)[C@@H](O)[C@H]1O [ADP]
GRP94 [8]
  change of GRP94 tryptophan fluorescence: the tryptophan fluorescence was decreased
GRP94 [9]
  competition with [3H]-NECA for binding to GRP94 (adenosine ligands): effectively competed
  effect of excess Mg2+ on binding to GRP94: markedly stimulated
GRP94 [9]; FIGS. 10A–10C
  extent of competition of NECA binding to GRP94: wholly competed
GRP94 [9]; excess Mg2+
  relative affinities for GRP94 in presence of Mg2+: nearly identical relative affinities
[10]; Prodromou et al. (1997)
  affinity of N-terminal domain of Hsp90 for ADP relative to ATP: four-fold higher affinity than that observed for ATP

## Nc1ncnc2c1ncn2[C@@H]1O[C@H](COP(=O)(O)O)[C@@H](O)[C@H]1O [AMP]
GRP94 [9]
  competition with [3H]-NECA for binding to GRP94 (adenosine ligands): effectively competed
  effect of excess Mg2+ on binding to GRP94: markedly stimulated

## Nc1ccn([C@@H]2O[C@H](COP(=O)(O)OP(=O)(O)OP(=O)(O)O)[C@@H](O)[C@H]2O)c(=O)n1 [CTP]
GRP94 [9]
  nucleoside base specificity: binding by [3H]-NECA competitive displacement: little to no binding

## Nc1nc2c(ncn2[C@@H]2O[C@H](COP(=O)(O)OP(=O)(O)OP(=O)(O)O)[C@@H](O)[C@H]2O)c(=O)[nH]1 [GTP]
GRP94 [11]
  effect on GRP94 autophosphorylation activity: markedly attenuated
Casein kinase II
  effect on casein kinase II activity: markedly attenuated
GRP94 [9]
  nucleoside base specificity: binding by [3H]-NECA competitive displacement: little to no binding

## CCC(=O)c1ccc2cc(N(C)C)ccc2c1 [Prodan, 6-propionyl-2-(dimethylamino)naphthalene]
GRP94 [1]
  fluorophore binding to heat shocked GRP94: does not interact with the hydrophobic binding pocket(s) displayed by heat shocked GRP94

## O=c1ccn([C@@H]2O[C@H](COP(=O)(O)OP(=O)(O)OP(=O)(O)O)[C@@H](O)[C@H]2O)c(=O)[nH]1 [UTP]
GRP94 [9]
  nucleoside base specificity: binding by [3H]-NECA competitive displacement: little to no binding

## Nc1ncnc2c1ncn2[C@@H]1O[C@H](CO)[C@@H](O)[C@H]1O [adenosine]
GRP94 [9]
  competition with [3H]-NECA for binding to GRP94 (adenosine ligands): relative displacement activity approximating that observed for ADP
  effect of excess Mg2+ on binding to GRP94: without effect

## Nc1ncnc2c1ncn2[C@H]1C[C@H](O)[C@@H](COP(=O)(O)OP(=O)(O)OP(=O)(O)O)O1 [deoxyATP]
GRP94 [9]
  nucleoside base specificity: binding by [3H]-NECA competitive displacement: could bind

## C[C@@H]1C[C@H]2O[C@@H]2/C=C\C=C\C(=O)Cc2c(Cl)c(O)cc(O)c2C(=O)O1 [radicicol]
Casein kinase II
  effect on casein kinase II activity: neither NECA nor radicicol, both of which bind to the N-terminal nucleotide binding domain of GRP94, significantly inhibit GRP94 derived or casein kinase II activity
[10]; Roe et al. (1999)
  binding stoichiometry of radicicol to Hsp90: 2 mol radicicol/mol Hsp90 dimer

## heparin
GRP94 [11]
  effect on GRP94 autophosphorylation activity: markedly attenuated
Casein kinase II
  effect on casein kinase II activity: markedly attenuated
